# Assay results reported in article PMC7023430, “4-Aminobenzoic Acid Derivatives: Converting Folate Precursor to Antimicrobial and Cytotoxic Agents” (Biomolecules, 2019).
# Read-outs that look alike come from different tables or passages of the source.
# Legend:
# HepG2 cells = assay: Cytotoxicity, CellTiter 96 assay; type: cell-based, human; conditions: 24 h incubation
# Procedure: HepG2, human hepatocellular carcinoma cells (ATCC HB-8065; passage 5–8) purchased from Health Protection Agency Culture Collections (ECACC, Salisbury, UK) were cultured in Minimum Essentials Eagle Medium supplemented with 10% fetal bovine serum, 1% L-glutamine solution and non-essential amino acid solution (Sigma-Aldrich, St. Louis, MO, USA) in a humidified atmosphere containing 5% CO2 at 37 °C. For subculturing, the cells were harvested after trypsin/EDTA (Sigma-Aldrich, St. Louis, USA) treatment at 37 °C. To evaluate cytotoxicity, the cells treated with the tested substances were used as experimental groups whereas untreated HepG2 cells served as control groups.
# The cells were seeded in a density of 10 000 cells per well in a 96-well plate. The following day the cells were treated with each of the tested substances dissolved in DMSO (maximal incubation concentration of DMSO was 1% v/v). The tested substances were prepared at different incubation concentrations in triplicates according to their solubility. Simultaneously, the controls representing 100% cell viability, 0% cell viability (the cells treated with 10% DMSO), no cell control and vehiculum controls were also involved in triplicates. After 24 h incubation in a humidified atmosphere containing 5% CO2 at 37 °C, the reagent from the kit CellTiter 96 AQueous One Solution Cell Proliferation Assay (CellTiter 96; Promega, Fitchburg, WI, USA) was added. After 2 h incubation at 37 °C absorbance of samples was recorded at 490 nm (TECAN, Infinita M200, Grödig, Austria). A standard toxicological parameter IC50 was calculated by nonlinear regression from a semilogarithmic plot of incubation concentration versus percentage of absorbance relative to untreated controls using GraphPad Prism software (version 6; GraphPad Software, Inc., La Jolla, CA, USA).
# The CellTiter 96 assay used is based on the reduction of tetrazolium dye in living cells to formazan, which is then determined colorimetrically. This reduction is related to availability of NADH or NADPH. The decline in levels of these metabolically important compounds in the cell causes that the production of formazan is reduced. For quantitative comparison of cytotoxicity, the parameter IC50 was used.
# [1] = system: Trichophyton interdigitale 445; assay: Antifungal microdilution broth method, T. interdigitale; type: cell-based
# Procedure: (§1) The antifungal properties were evaluated against five yeast strains, namely: Candida albicans ATCC 44859, Candida tropicalis 156, Candida krusei […], Candida glabrata 20/I, Trichosporon […] 1188 and three strains of filamentous fungi: Aspergillus fumigatus 231, Lichtheimia corymbifera 272, and Trichophyton interdigitale 445. A microdilution broth method was performed according to EUCAST II, III instructions with slight modifications. Briefly, tested compounds were dissolved in DMSO and diluted in a twofold manner with RPMI-1640 medium with L-glutamine, supplemented with 2% glucose (w/v) and buffered to pH 7.0 with 3 morpholinopropane-1-sulfonic acid (all components were purchased from Sigma-Aldrich, USA). […] Positive controls consisted of test microbe solely, while negative controls consisted of medium and DMSO. Internal quality control was included too. Visual inspection was used for MIC endpoints evaluation. The experiments were conducted in duplicates. For the results to be valid, the difference in MIC determined from two parallel measurements must not be greater than one step on the dilution scale. PABA and triazole antimycotic drug fluconazole were involved as the reference compounds.
# Candida tropicalis 156 = assay: Antifungal microdilution broth method, C. tropicalis; type: cell-based
# Procedure: as §1
# [2] = system: Aspergillus fumigatus 231; assay: Antifungal microdilution broth method, A. fumigatus; type: cell-based
# Procedure: as §1
# Candida glabrata 20/I = assay: Antifungal microdilution broth method, C. glabrata; type: cell-based; conditions: Nakaseomyces glabratus
# Procedure: as §1
# Trichosporon asahii 1188 = assay: Antifungal microdilution broth method, T. asahii; type: cell-based
# Procedure: as §1
# Candida krusei E28 = assay: Antifungal microdilution broth method, C. krusei; type: cell-based; conditions: Pichia kudriavzevii
# Procedure: as §1
# [3] = system: Candida albicans ATCC 44859; assay: Antifungal microdilution broth method, C. albicans; type: cell-based
# Procedure: as §1
# [4] = system: Lichtheimia corymbifera 272; assay: Antifungal microdilution broth method, L. corymbifera; type: cell-based
# Procedure: as §1
# [5] = system: M. kansasii 6509/96 (clinical isolate); assay: Antimycobacterial micromethod in Šula's medium, M. kansasii 6509/96; type: cell-based; conditions: Mycobacterium kansasii
# [6] = system: Mycobacterium kansasii 235/80; assay: Antimycobacterial micromethod in Šula's medium, M. kansasii 235/80; type: cell-based
# [7] = system: Mycobacterium tuberculosis H37Rv (331/88); assay: Antimycobacterial micromethod in Šula's medium, M. tuberculosis; type: cell-based
# [8] = system: Mycobacterium avium 330/88; assay: Antimycobacterial micromethod in Šula's medium, M. avium; type: cell-based
# [9] = system: Escherichia coli ATCC 25922, CCM 3954; assay: Antibacterial microdilution broth method, E. coli; type: cell-based
# [10] = system: Pseudomonas aeruginosa ATCC 27853, CCM 3955; assay: Antibacterial microdilution broth method, P. aeruginosa; type: cell-based; conditions: P. aeruginosa
# [11] = system: Enterococcus faecalis ATCC 29212, CCM 4224; assay: Antibacterial microdilution broth method, E. faecalis; type: cell-based
# [12] = system: methicillin-resistant Staphylococcus aureus ATCC 43300, CCM 4750 (MRSA); assay: Antibacterial microdilution broth method, MRSA; type: cell-based
# [13] = system: Klebsiella pneumoniae D 11750/08; assay: Antibacterial microdilution broth method, K. pneumoniae; conditions: K. pneumoniae D 11750/08
# [14] = system: Staphylococcus epidermidis H 6966/08; assay: Antibacterial microdilution broth method, S. epidermidis; type: cell-based; conditions: S. epidermidis
# [15] = system: ESBL-positive Klebsiella pneumoniae J 14368/08; conditions: ESBL-positive K. pneumoniae
# [16] = 24 h incubation, read-out: MIC EC 24 h
# [17] = 48 h incubation, read-out: MIC EC 48 h
# [18] = 24 h incubation, read-out: MIC PA 24 h
# [19] = 48 h incubation, read-out: MIC PA 48 h
compound,measurement,setting,value
"N.N.[Cl][Pt][Cl] [Cisplatin, cisplatin, reference compound]",IC50,HepG2 cells,21.3 µM
"OC(Cn1cncn1)(Cn1cncn1)c1ccc(F)cc1F [FLU, fluconazole, reference compound]",MIC50,"[1]; 72 h, fluconazole values mean MIC50, read-out: MIC50 TI 72 h",7.81 µM
same,MIC50,"[1]; 120 h, fluconazole values mean MIC50, read-out: MIC50 TI 120 h",125 µM
same,MIC50,"Candida tropicalis 156; 24 h, fluconazole values mean MIC50, read-out: MIC50 CT 24 h",> 500 µM
same,MIC50,"Candida tropicalis 156; 48 h, fluconazole values mean MIC50, read-out: MIC50 CT 48 h",> 500 µM
same,MIC50,"[2]; 24 h, fluconazole values mean MIC50, read-out: MIC50 AF 24 h",> 500 µM
same,MIC50,"[2]; 48 h, fluconazole values mean MIC50, read-out: MIC50 AF 48 h",> 500 µM
same,MIC50,"Candida glabrata 20/I; 24 h, fluconazole values mean MIC50, read-out: MIC50 CG 24 h",31.2 µM
same,MIC50,"Candida glabrata 20/I; 48 h, fluconazole values mean MIC50, read-out: MIC50 CG 48 h",500 µM
same,MIC50,"Trichosporon asahii 1188; 24 h, fluconazole values mean MIC50, read-out: MIC50 TA 24 h",250 µM
same,MIC50,"Trichosporon asahii 1188; 48 h, fluconazole values mean MIC50, read-out: MIC50 TA 48 h",500 µM
same,MIC50,"Candida krusei E28; 24 h, fluconazole values mean MIC50, read-out: MIC50 CK 24 h",125 µM
same,MIC50,"Candida krusei E28; 48 h, fluconazole values mean MIC50, read-out: MIC50 CK 48 h",250 µM
same,MIC50,"[3]; ATCC44859, 24 h, fluconazole values mean MIC50, read-out: MIC50 CA 24 h",0.24 µM
same,MIC50,"[3]; ATCC44859, 48 h, fluconazole values mean MIC50, read-out: MIC50 CA 48 h",0.24 µM
same,MIC50,"[4]; 24 h, fluconazole values mean MIC50, read-out: MIC50 LC 24 h",> 500 µM
same,MIC50,"[4]; 48 h, fluconazole values mean MIC50, read-out: MIC50 LC 48 h",> 500 µM
"NNC(=O)c1ccncc1 [INH, isoniazid, reference compound]",MIC,"[5]; 168 h, 7 days incubation at 37 °C, read-out: MIC M. kansasii 6509/96 7 d",8 µM
same,MIC,"[5]; 336 h, 14 days incubation at 37 °C, read-out: MIC M. kansasii 6509/96 14 d",8 µM
same,MIC,"[5]; 504 h, 21 days incubation at 37 °C, read-out: MIC M. kansasii 6509/96 21 d",8 µM
same,MIC,"[6]; 235/80, 168 h, 7 days incubation at 37 °C, read-out: MIC M. kansasii 235/80 7 d",> 250 µM
same,MIC,"[6]; 235/80, 336 h, 14 days incubation at 37 °C, read-out: MIC M. kansasii 235/80 14 d",> 250 µM
same,MIC,"[6]; 235/80, 504 h, 21 days incubation at 37 °C, read-out: MIC M. kansasii 235/80 21 d",> 250 µM
same,MIC,"[7]; 336 h, 14 days incubation at 37 °C, read-out: MIC Mtb. 331/88 14 d",0.5 µM
same,MIC,"[7]; 504 h, 21 days incubation at 37 °C, read-out: MIC Mtb. 331/88 21 d",1 µM
same,MIC,"[8]; 330/88, 336 h, 14 days incubation at 37 °C, read-out: MIC M. avium 330/88 14 d",> 250 µM
same,MIC,"[8]; 330/88, 504 h, 21 days incubation at 37 °C, read-out: MIC M. avium 330/88 21 d",> 250 µM
"NC[C@@H]1O[C@H](O[C@H]2[C@@H](O)[C@H](O[C@@H]3[C@@H](O)[C@H](N)C[C@H](N)[C@H]3O[C@H]3O[C@H](CN)[C@@H](O)[C@H](O)[C@H]3N)O[C@@H]2CO)[C@H](N)[C@@H](O)[C@@H]1O [NEO, neomycin, reference compound]",MIC,[9]; [16],3.9 µM
same,MIC,[9]; [17],3.9 µM
same,MIC,[10]; [18],7.81 µM
same,MIC,[10]; [19],15.62 µM
bacitracin [reference compound],MIC,"[11]; 24 h incubation, read-out: MIC EF 24 h",15.62 µM
same,MIC,"[11]; 48 h incubation, read-out: MIC EF 48 h",62.5 µM
same,MIC,"[12]; 24 h incubation, read-out: MIC MRSA 24 h",15.62 µM
same,MIC,"[12]; 48 h incubation, read-out: MIC MRSA 48 h",15.62 µM
same,MIC KP 24 h,[13]; 24 h incubation,>500 µM
same,MIC KP 48 h,[13]; 48 h incubation,>500 µM
same,MIC,"[14]; 24 h incubation, read-out: MIC SE 24 h",15.62 µM
same,MIC,"[14]; 48 h incubation, read-out: MIC SE 48 h",31.25 µM
same,MIC,[9]; [16],>500 µM
same,MIC,[9]; [17],>500 µM
same,MIC KP-E 24 h,[15]; 24 h incubation,>500 µM
same,MIC KP-E 48 h,[15]; 48 h incubation,>500 µM
same,MIC,[10]; [18],>500 µM
same,MIC,[10]; [19],>500 µM
